Reference: patent US20240268381A1, “Agricultural Chemical Formulation” (ExxonMobil Chemical Patents Inc., priority 2021, published 2024)

Key:
Assay type in all cases: physicochemical
[1] = Solvency test, active ingredient MCPA; details: wt % active ingredient in solution; concentrations below 15 wt % not tested
Method: (§1) Solvency of solvents E1-E5 and C1-C8 was tested by dissolving various solid active ingredients in each solvent. The following pesticides were tested as active ingredients: trifluralin, fluroxypyr, bromoxynil octanoate, and 2-methyl-4-chlorophenoxyacetic acid (MCPA). Solvency was characterized by the weight ratio of an active ingredient in a solvent and was determined by adding 0.5 gram of active ingredient to a vial equipped with a stir bar and then charging the solvent to achieve a desired concentration. The vials were capped and placed into a water bath kept at a temperature 5 to 10° C. below the melting point of tested pesticide. The mixture was stirred in the vial for 24 hours. If the active ingredient was fully dissolved, the mixture was transferred to a room temperature water bath. If no active ingredient crystals were formed, a higher concentration of active ingredient was tested. Conversely, if active ingredient crystals were formed, a lower concentration of active ingredient was tested. Solubility was recorded as the highest concentration of active ingredient in the tested solvent with no formation of crystals. Concentrations were tested at a 5% interval. For example, if the active ingredient was dissolved at 50%, 55% would be the next concentration to be tested. Concentrations below 15 wt % were not tested.

[2] = Solvency test, active ingredient trifluralin; details: wt % active ingredient in solution; highest concentration with no crystals at room temperature
Method: as §1

[3] = Solvent solubility in water; details: 20 g solvent mixed with 20 g water, phases separated 24 hours, water layer tested by gas chromatography
Method: (§2) The following properties of the solvents were tested: • Kinematic viscosity at 25° C. […] The funnel containing the mixture was inverted several times. The water and solvent phases were allowed to separate for 24 hours, resulting in two distinct phases. For water solubility in solvent, the solvent layer was transferred to a sample vial and was tested for water content according to ASTM E1064. For solvent solubility in water, the water layer was transferred to a sample vial and was tested by a gas chromatography test method for solvent content. Water content, water solubility, and solvent solubility in water were not tested for solvents C2-C5.

[4] = Solvency test, active ingredient bromoxynil octanoate; details: wt % active ingredient in solution; highest concentration with no crystals at room temperature
Method: as §1

[5] = Solvency test, active ingredient fluroxypyr; details: wt % active ingredient in solution; highest concentration with no crystals at room temperature
Method: as §1

[6] = Density at 25° C. (ASTM D4052)
[7] = Water solubility in solvent; details: 20 g solvent mixed with 20 g water, phases separated 24 hours, solvent layer tested
Method: as §2

[8] = Kinematic viscosity at 25° C. (ASTM D7042)
Method: as §2

Pour point (ASTM D5950) = experiment: Pour point (ASTM D5950)
Method: as §2

[9] = Water content of the solvents, Karl Fischer titration (ASTM E1064)
Method: as §2

[10] = Hydrolytic stability in pH 4.5 or pH 8.5 buffer; details: 54° C., 14 days, 13C NMR; for Hydrolysis at pH 4.5: pH 4.5 buffer; for Hydrolysis at pH 8.5: pH 8.5 buffer
Method: Hydrolytic stability was characterized by mixing the tested solvent with an excess of pH 4.5 or pH 8.5 buffer in a vial which was placed in a heated water bath (54° C.). After 14 days, the vial was cooled to room temperature and the content was allowed to separate into aqueous and organic (solvent) phases. The solvent phase was transferred to a clean vial and sodium sulfate was added to remove residual water. The mixture was filtered to obtain the solvent filtrate which was analyzed by ^13C NMR to measure the amount of hydrolysis products (acid or alcohol), if any.
Hydrolytic stability for solvents E3, C1, C2, and C6-C8 was not tested. No hydrolysis is expected for aromatic solvent C2 due to lack of hydrolysable bonds.

Structure (SMILES)	Solvency, MCPA [1] [wt %]	Solvency, Trifluralin [2] [wt %]	Solvent solubility in water [3] [wt %]	Solvency, Bromoxynil Octanoate [4] [wt %]	Solvency, Fluroxypyr [5] [wt %]	Density at 25° C. [6] [g/mL]	Water solubility in solvent [7] [vol %]	KV25 [8] [cSt]	Pour Point (Pour point (ASTM D5950)) [°C]	Water content [9] [ppm w/w]	Hydrolysis at pH 4.5 [10] [%]	Hydrolysis at pH 8.5 [10] [%]
CC(=O)OCCCCCCC(C)C [Solvent C8, isononyl acetate]	<15	72.9	<0.001	67.5	<15	0.867	0.369	2.15	−102	722	–	–
CCCCOC(=O)c1ccccc1 [Solvent C3, Butyl benzoate, reference compound]	<15	62.8	–	69.7	–	1.001	–	3.11	−36	–	0.5	6.7
CN(C)C(=O)CCCCCC(C)(C)C [Solvent E5, N,N-dimethyl neodecanamide]	–	65.0	0.141	63.5	63.0	0.883	2.457	7.29	−72	589	<1.0	<1.0
CCCCCCCCCC(=O)N(C)C [Solvent C5, linear N,N-dimethyldecanamide, reference compound]	<15	62.4	–	60.2	62.2	0.876	–	5.33	−6	–	<1.0	<1.0
CC(=O)OCCCCCC(C)C [Solvent C7, isooctyl acetate]	<15	77.3	0.005	70.9	60.2	0.868	0.448	1.69	−105	699	12.6	<1.0
CC(C)CCCCCOC(=O)c1ccccc1 [Solvent E3, Isooctyl benzoate]	<15	64.1	<0.001	68.6	50.8	0.962	0.265	6.53	–	113	–	–
CC(C)(C)C(=O)OCc1ccccc1 [Solvent E4, Benzyl pivalate]	<15	69.5	0.010	68.8	66.0	0.966	0.422	3.40	−90	232	0.3	<1.0
CCC(C)OC(=O)c1ccc(C(=O)OC(C)CC)o1 (centres unmarked) [Solvent C1, Di-sec butyl furan-2,5-dicarboxylate, reference compound]	<15	37.1	0.003	48.3	<15	1.047	0.699	66.27	–	269	–	–
O=C(OC1CCCCC1)c1ccccc1 [Solvent E2, Cyclohexyl benzoate]	<15	66.8	0.007	68.3	64.8	1.042	0.394	11.96	−54	102	2.7	1.7
CC(=O)OCc1ccccc1 [Solvent C4, Benzyl acetate, reference compound]	15.1	61.2	–	72.9	59.8	1.051	–	2.20	−90	–	22.5	6.8
CC(C)CCCCCCCOC(=O)c1ccccc1 [Solvent C6, isodecyl benzoate]	<15	54.5	<0.001	62.1	–	0.949	0.173	9.60	−69	332	–	–
CCC(C)OC(=O)c1ccccc1 (centres unmarked) [Solvent E1, Secondary butyl benzoate]	<15	72.6	0.008	73.0	61.3	0.992	0.386	3.38	−81	499	<1.0	3.7
